Assay results: patent publication USRE42274E1, “Cyclic peptide CXCR4 antagonists” (Eli Lilly and Company, priority 2007, dated 2011)
Bridge positions count the residues as written; N and C are the ends. Square brackets hold non-standard residues; d marks the D form. Peptide text beside a SMILES is read from it. 2Nal = N[C@@H](Cc1ccc2ccccc2c1)C(=O)O; Lys(iPr) = CC(C)NCCCC[C@H](N)C(=O)O

Experiment: Half-life in mice
Details: mouse, in vivo, read-out: half-life (T½) (converted)
Procedure: Pharmacologic properties such as compound bioavailability, in vivo metabolic stability, and pharmacokinetic/pharmacodynamic properties can be determined by methods well known in the art of drug development. […] For example, in mice, the half-life (T½) of the compound of Example 58 is about 3 hours. With respect to pharmacodynamic properties, preferred compounds induce prolonged neutrophil and white blood cell mobilization in mice. For example, the compound of Example 25 induces a significant increase of neutrophils and white blood cells in peripheral blood for at least 6 hours after single dose subcutaneous administration at 5 mg/kg in mice.

half-life: ~180 min
Compound: CC(C)NCCCC[C@@H]1NC(=O)[C@H](Cc2ccc(O)cc2)NC(=O)[C@H](Cc2ccccc2)NC(=O)CC[C@H](C(=O)N[C@@H](CCCNC(=N)N)C(N)=O)NC(=O)CNC(=O)[C@H](Cc2ccc3ccccc3c2)NC(=O)[C@@H](CCCNC(=N)N)NC1=O [Example 58, cyclo[Phe-Tyr-Lys(iPr)-DArg-2Nal-Gly-DGlu]-Arg-NH2] (FY[Lys(iPr)][dR][2Nal]G[dE]R-NH2; lactam N-7)
